Measured values: patent US8728508B2, “Hydrophilic coating and a method for the preparation thereof” (Coloplast A/S, priority 2002, dated 2014)
Converted amounts (≈) assume the structure as drawn. Counter-ions that a name gives are not always drawn.

Tests used:
[1] = Hansen solubility parameter, cited from earlier work; for Delta D: dispersion; for Delta H: hydrogen bonding; for Delta P: polar
[2] = cited from earlier work
[3] = Vigorous finger rubbing under running water of UV cured coated polyurethane catheters (coating stable / lubricious); type: physicochemical
Protocol: The coating was applied to polyurethane catheters by dipping the catheters in the polymer solution at room temperature and withdrawing them at a speed of 21 mm/s. The catheters were dried for 30 minutes at 70° C. and then UV cured for 150 seconds at 40-50° C. The UV cured catheters were immediately rubbed vigorously between the fingers under running water in order to evaluate whether the coating was stable and lubricious. They were then stored in water for at least 72 hours, and vigorous finger rubbing under running water was repeated. The catheters were then scored “stable” and “lubricious” only if the coating was still stable and lubricious at this time.

[4] = 8.7% plasticiser, 5% PVP K-90, 82% ethanol, 4.35% NMP, polyurethane catheters, finger rubbing under running water after at least 72 hours storage in water
[5] = 10% triethyl citrate, 79.0% solvent, 5% NMP, 6% PVP K-90, finger rubbing after at least 72 hours storage in water

| Structure (SMILES) | Delta D [1] | Delta H [1] | Delta P [1] | Solubility in water (g/L) [2] | Solubility in water [2] [mg/mL] | Coating stable? [3, 4] | Coating stable? [3, 5] |
| --- | --- | --- | --- | --- | --- | --- | --- |
| CS(C)(=O)=O [Dimethyl sulfone] | 19 | 12.3 | 19.4 | Miscible |  |  |  |
| CC1COC(=O)O1 (stereo not shown) [Propylene carbonate] | 20 | 4.1 | 18 |  | 190 (≈ 1860 mM) |  |  |
| CCOC(=O)CC(O)(CC(=O)OCC)C(=O)OCC [Triethyl citrate] |  |  |  |  |  | stable |  |
| COC(=O)c1ccccc1O [Methyl salicylate] | 16 | 12.3 | 8 |  |  |  |  |
| CCOC(=O)CC(CC(=O)OCC)(OC(C)=O)C(=O)OCC [Acetyl triethyl citrate] | 16.6 | 8.6 | 3.5 |  |  | stable |  |
| CC(=O)OCC(CO)OC(C)=O (stereo not shown) [Glycerol diacetate] | 16.4 | 14.2 | 8.9 | Miscible |  | stable |  |
| CCOP(=O)(OCC)OCC [Triethyl phosphate] | 16.7 | 9.2 | 11.4 |  |  |  |  |
| OCC(O)CO [glycerol] |  |  |  |  |  | not stable |  |
| CC(=O)N1CCOCC1 [N-Acetyl morpholine] | 18.3 | 7.8 | 5.3 | Miscible |  |  |  |
| CN(C)C=O [dimethyl formamide] |  |  |  |  |  |  | stable |
| CCO [Ethanol] |  |  |  |  |  |  | stable |
| CC1=CC(=O)CC(C)(C)C1 [Isophorone] | 16.6 | 7.4 | 8.2 |  |  |  |  |
| C1COCO1 [1,3-dioxolane] |  |  |  |  |  |  | stable |
| c1ccc2ncccc2c1 [Quinoline] | 19.4 | 7.6 | 7 |  |  |  |  |
| CC(=O)OCC(COC(C)=O)OC(C)=O [Glycerol triacetate] | 16.5 | 9.1 | 4.5 |  | 71 | stable |  |
